Experimental data taken from patent US20250230226A1, “PLXDC1/PLXDC2 ACTIVATORS AND THEIR USE IN THE TREATMENT OF BLOOD VESSEL DISORDERS” (THE REGENTS OF THE UNIVERSITY OF CALIFORNIA, priority 2019, published 2025).

Tested on: LL/2 lung cancer tumor endothelial cells
Assay: Lung LL2 ex vivo model of tumor angiogenesis
Assay type: cell-based, mouse
Details: for 48 hrs (morphology observations): LL/2 tumor endothelial cells; for Cell death: drug treatment for two days, ratio of red area to total endothelial cell area
Protocol: An ex vivo tumor angiogenesis model was developed to test the efficacy of anti-cancer candidate agents. The following protocol describes the Ex Vivo Tumor Angiogenesis Model.
• 1. The day before the experiment, all necessary tools were sprayed with 70% ethanol and sterilized under UV light overnight, including blade, dissecting and micro-dissecting scissors and […]. 24-well dishes were placed at 4° C. to pre-chill plates and Matrigel was thawed, 24 hours before tumor dissection. • 2. 70% ethanol was sprayed on working bench. Two sterile petri dishes were prepared with 10 ml sterile PBS. The following steps 3 and 4 are necessary for mouse tumor models. For fresh human tumor, steps 3 and 4 are skipped. • 3. The tumor-bearing mice were euthanized. 70% ethanol was sprayed on the mouse and the tumor was removed using sterilized dissecting tools (avoid the fur). The tumor was rinsed in petri dish with sterile PBS to remove ethanol and fur. The tumor was transferred to a new petri dish with PBS for dissection. The dish is placed on ice. • 4. Pre-chilled sterile pipet tips were used to seed regular Matrigel in 24 well plates on ice. Matrigel (30 μl) was dropped in the middle of each well without touching the edge of the well (avoid introducing bubbles if possible). • 5. The tumor was cut in halves using the sterile blade. Healthy tumor tissue that is not necrotic and is within the tumor capsule was identified and isolated. The healthy tumor tissue was cut into small pieces. For instance, a suitable size for the tumor tissue is 0.5 mm (H)×0.5 mm (L)×0.3 mm (D) with a total volume of 0.075 mm^3. • 6. Each tumor piece was gently transferred and embedded in the Matrigel drop in the 24-well plate. The embedded piece was placed in the bottom and middle of each Matrigel drop. The plate was kept on ice all the time. • 7. After seeding the tumor pieces, plates were incubated in a 37° C. cell culture incubator without medium for 10 minutes in order for the Matrigel to solidify. • 8. Endothelial Growth Medium (0.5 ml) was added to each well and incubated at 37° C. with 5% CO2. Treatment was not added until the new endothelial cells was grown out of the tumor or were larger than 3 mm in diameter. This usually takes 4 days for the LL2 Lewis lung cancer model and 7 days for the CT26 colon cancer model. For human tumor models, the growth time is typically 2-3 weeks, depending on the tumor type. Media was changed every 4 days during prolonged culture. Typically, when the tumor tissue grows to 2 mm in diameter, it was good for drug testing. A size of about 3 mm in diameter can make visualization easier. • 9. When the assay was ready to be analyzed for cell death (e.g., 48 hours after drug addition), the dye mixture was prepared by mixing 6 μl of green dye to stain live cells (5 mg/ml Fluorescein diacetate or FDA in DMSO) with 30 μl of red dye (2.5 mg/ml Propidium iodide or PI in PBS) to stain dead cells in an Eppendorf tube. The FDA dye needs to be stored frozen in a −20° C. freezer because it has a labile ester bond. • 10. 1 μl of the dye mixture was added to each well of the 24-well dish. It is usually preferred to do one 24-well dish at a time given the amount of time needed to take pictures (the green dye is not as stable in the cells in the long term). • 11. The dish was gently rocked a few times to mix the dye with the media in the wells and incubate the dish at 37° C. for 10 min (too long incubation can make the green signal too intense). • 12. Each well was washed with 0.5 ml of sterile PBS and then 0.5 ml of phenol red free SFM was added to each well. Alternatively 0.5 ml of regular Endothelial Cell Growth Media can be added to each well if this well needs to be continuously maintained after the experiment. • 13. An inverted microscope using the 2× objective lens was used to observe morphological changes in the experimental wells. • 14. […]

[1] = Mus musculus, Endothelial cell, 48 h, read-out: Cell death

| Compound | 48 hrs (morphology observations) (20 μm) | Cell death (20 μm) [%] | 48 hrs (morphology observations) (10 μm) | Cell death (10 μm) [%] | further results |
| --- | --- | --- | --- | --- | --- |
| CCCCCCCOc1ccc(S(=O)(=O)c2cnc3ccc(SC)cc3c2N2CCC(N3CCN(C)CC3)CC2)cc1 [Compound 246] | *** (more than 50% but less than 100% of endothelial cells vesicularize in cell shape) | 95 |  |  |  |
| CCCCCCCOc1ccc(S(=O)(=O)c2cnc3ccc(SC)cc3c2N2CCC(N3CCCC(O)C3)CC2)cc1 (stereo not shown) [Compound 247] | *** (more than 50% but less than 100% of endothelial cells vesicularize in cell shape) | 60 |  |  |  |
| CCCCCCCOc1ccc(S(=O)(=O)c2cnc3ccc(SC)cc3c2N2CCCN(CCN3CCCCC3)CC2)cc1 [Compound 248] | * (50% or less of cells vesicularize in cell shape) | 60 |  |  |  |
| CCCCCCCOc1ccc(S(=O)(=O)c2cnc3ccc(SC)cc3c2N2CCC(N3CCCN(C)CC3)CC2)cc1 [Compound 249] | *** (more than 50% but less than 100% of endothelial cells vesicularize in cell shape) | 60 |  |  |  |
| CCCCCCCOc1ccc(S(=O)(=O)c2cnc3ccc(SC)cc3c2N2CCC(N3CCN(CCO)CC3)CC2)cc1 [Compound 250] | *** (more than 50% but less than 100% of endothelial cells vesicularize in cell shape) | 90 |  |  |  |
| CCCCCCCOc1ccc(S(=O)(=O)c2cnc3ccc(SC)cc3c2N2CCC(N3CCC(N4CCCCC4)CC3)CC2)cc1 [Compound 251] | *** (more than 50% but less than 100% of endothelial cells vesicularize in cell shape) | 60 |  |  |  |
| CCCCCCCOc1ccc(S(=O)(=O)c2cnc3ccc(SC)cc3c2N2CCC(N3CCC(O)(c4ccccc4)CC3)CC2)cc1 [Compound 262] |  |  | 0 | 20 |  |
| CCCCCCCOc1ccc(S(=O)(=O)c2cnc3ccc([S+](C)[O-])cc3c2N2CCC(N3CCC(O)(c4ccccc4)CC3)CC2)cc1 (stereo not shown) [Compound 263] |  |  | **** (100% of endothelial cells vesicularize in cell shape and look flattened in morphology (indicating disintegration of the cell body)) |  |  |
| CCCCCCCCCCOc1ccc(S(=O)(=O)c2cnc3ccc([S+](C)[O-])cc3c2N2CCC(N3CCN(C)CC3)CC2)cc1 (stereo not shown) [Compound 264] |  |  | * (50% or less of cells vesicularize in cell shape) | 20 |  |
| CCCCCCCCCCOc1ccc(S(=O)(=O)c2cnc3ccc([S+](C)[O-])cc3c2N2CCC(N3CCCC(O)C3)CC2)cc1 (stereo not shown) [Compound 265] |  |  | * (50% or less of cells vesicularize in cell shape) | 20 |  |
| CCCCCCCCCCOc1ccc(S(=O)(=O)c2cnc3ccc([S+](C)[O-])cc3c2N2CCCN(CCN3CCCCC3)CC2)cc1 (stereo not shown) [Compound 266] |  |  | 0 | 5 |  |
| CCCCCCCCCCOc1ccc(S(=O)(=O)c2cnc3ccc([S+](C)[O-])cc3c2N2CCC(N3CCCN(C)CC3)CC2)cc1 (stereo not shown) [Compound 267] |  |  | 0 | 5 |  |
| CCCCCCCCCCOc1ccc(S(=O)(=O)c2cnc3ccc([S+](C)[O-])cc3c2N2CCC(N3CCN(CCO)CC3)CC2)cc1 (stereo not shown) [Compound 268] | *** (more than 50% but less than 100% of endothelial cells vesicularize in cell shape) | 50 |  |  |  |
| CCCCCCCCCCOc1ccc(S(=O)(=O)c2cnc3ccc([S+](C)[O-])cc3c2N2CCC(N3CCC(N4CCCCC4)CC3)CC2)cc1 (stereo not shown) [Compound 269] | **** (100% of endothelial cells vesicularize in cell shape and look flattened in morphology (indicating disintegration of the cell body)) | 100 |  |  |  |
| CCCCCCCCCCOc1ccc(S(=O)(=O)c2cnc3ccc([S+](C)[O-])cc3c2N2CCC(N3CCC(O)(c4ccccc4)CC3)CC2)cc1 (stereo not shown) [Compound 270] | * (50% or less of cells vesicularize in cell shape) |  |  |  |  |
| CCCCCCCOc1ccc(S(=O)(=O)c2cnc3ccc(SC)cc3c2N2CCN(CCN3CCCC3)CC2)cc1 [Compound 272] | * (50% or less of cells vesicularize in cell shape) | 20 |  |  |  |

| Compound | 48 hrs (morphology observations) (20 μm) | Cell death (20 μm) [%] | 48 hrs (morphology observations) (10 μm) | Cell death (10 μm) [%] | further results |
| --- | --- | --- | --- | --- | --- |
| CCCCCCCOc1ccc(S(=O)(=O)c2cnc3ccc(SC)cc3c2N2CCN(C3CCN(C)CC3)CC2)cc1 [Compound 273] | *** (more than 50% but less than 100% of endothelial cells vesicularize in cell shape) |  |  |  | cytotoxicity at 20 µM [1]: 60% |
| CCCCCCCOc1ccc(S(=O)(=O)c2cnc3ccc(SC)cc3c2N2CCN(C3CCN(Cc4ccccc4)C3)CC2)cc1 (stereo not shown) [Compound 274] | 0 | 10 |  |  |  |
| CCCCCCCOc1ccc(S(=O)(=O)c2cnc3ccc(SC)cc3c2N2CCN(CC3CCN(Cc4ccccc4)CC3)CC2)cc1 [Compound 275] | 0 | 5 |  |  |  |
| CCCCCCCOc1ccc(S(=O)(=O)c2cnc3ccc([S+](C)[O-])cc3c2N2CCN(CCN3CCCC3)CC2)cc1 (stereo not shown) [Compound 276] | *** (more than 50% but less than 100% of endothelial cells vesicularize in cell shape) | 100 |  |  |  |
| CCCCCCCOc1ccc(S(=O)(=O)c2cnc3ccc([S+](C)[O-])cc3c2N2CCN(C3CCN(CC)CC3)CC2)cc1 (stereo not shown) [Compound 277] |  |  |  |  | cytotoxicity at 10 µM [1]: 60% |
| CCCCCCCOc1ccc(S(=O)(=O)c2cnc3ccc([S+](C)[O-])cc3c2N2CCN(C3CCN(Cc4ccccc4)C3)CC2)cc1 (stereo not shown) [Compound 278] |  |  | * (50% or less of cells vesicularize in cell shape) | 50 |  |
| CCCCCCCOc1ccc(S(=O)(=O)c2cnc3ccc([S+](C)[O-])cc3c2N2CCN(CC3CCN(Cc4ccccc4)CC3)CC2)cc1 (stereo not shown) [Compound 279] | **** (100% of endothelial cells vesicularize in cell shape and look flattened in morphology (indicating disintegration of the cell body)) | 100 |  |  |  |
| CCCCCCCOc1ccc(S(=O)(=O)c2cnc3ccc(SC)cc3c2N2CCN(CCN3CCCCC3)CC2)cc1 [Compound 281] |  | 50 |  |  |  |
| CCCCCCCOc1ccc(S(=O)(=O)c2cnc3ccc([S+](C)[O-])cc3c2N2CCN(CCN3CCCCC3)CC2)cc1 (stereo not shown) [Compound 282] |  |  | 0 | 10 |  |
| CCCCCCCCCCOc1ccc(S(=O)(=O)c2cnc3ccc([S+](C)[O-])cc3c2N2CCN(C3CCN(CC)CC3)CC2)cc1 (stereo not shown) [Compound 283] |  |  | 0 |  | cytotoxicity at 10 µM [1]: 5% |
| CC(C)CCCC(C)CCOc1ccc(S(=O)(=O)c2cnc3ccc([S+](C)[O-])cc3c2N2CCC(N3CCN(CCO)CC3)CC2)cc1 (stereo not shown) [Compound 284] |  |  | 0 | 10 |  |
| CCCCCCCCCCOc1ccc(S(=O)(=O)c2cnc3ccc([S+](C)[O-])cc3c2N2CCC(N3CCC(N4CCN(C)CC4)CC3)CC2)cc1 (stereo not shown) [Compound 285] |  |  | *** (more than 50% but less than 100% of endothelial cells vesicularize in cell shape) | 60 |  |
| CCCCCCCCCCOc1ccc(S(=O)(=O)c2cnc3ccc([S+](C)[O-])cc3c2N2CCC(N3CCC(N4CCOCC4)CC3)CC2)cc1 (stereo not shown) [Compound 286] |  |  |  |  | Cell death, read at 24 hrs (20 μm): 0%; Endothelial cell morphology score at 24 hrs (20 μm): 0 |
| CCCCCCCCCCOc1ccc(S(=O)(=O)c2cnc3ccc([S+](C)[O-])cc3c2N2CCC(N3CCC(N4CCCN(C)CC4)CC3)CC2)cc1 (stereo not shown) [Compound 287] |  |  |  |  | Cell death, read at 24 hrs (20 μm): 40%; Endothelial cell morphology score at 24 hrs (20 μm): * (50% or less of cells vesicularize in cell shape) |
| CCCCCCCCCCOc1ccc(S(=O)(=O)c2cnc3ccc([S+](C)[O-])cc3c2N2CCC(N3CCC(N4CCCC(O)C4)CC3)CC2)cc1 (stereo not shown) [Compound 288] |  |  | *** (more than 50% but less than 100% of endothelial cells vesicularize in cell shape) | 50 |  |
